# Test results taken from patent US20260014146A1, “CDK2 INHIBITORS AND METHODS OF USING THE SAME” (Cedilla Therapeutics, Inc., priority 2022, published 2026).
# pIC50: −log10 of the molar value.
# Assays:
# Kuramochi cells = test: BrdU cell proliferation assay; type: cell-based; conditions: 96 h, developed on day 4, read-out: BrdU - KURAMOCHI.1: IC50
# Description: A BrdU assay was used as a measure of proliferation based on the DNA replication process of proliferating cells. BrdU, a pyrimidine analog, is added to the cell culture and incorporated into the DNA of proliferating cells. The presence of the BrdU analog was then measured through a colorimetric ELISA. After fixation and permeabilization of cells, peroxidase-conjugated antibody recognizing BrdU is added and allowed to incubate, followed by thorough washing to remove unbound antibody. In order to quantify the amount of bound antibody, peroxidase substrate is added and produces a color that can be measured at 450 nm.
# On day −1, Kuramochi cells (Sekisui XenoTech JCRB0098) were seeded at 2,000 cells/well in columns 2-12 of a 96 well plate (Corning, CLS3596) in 150 uL media and allowed to adhere overnight at 37 degree with 5% CO2. In order to assess specificity of the compounds, Kuramochi RB^KO cells were also plated and treated, as RB^KO cells were not expected to show a proliferative response to CCNE/CDK specific inhibitors.
# On day 0, the source plate was prepared by adding 10 mM compounds and performing 3-fold serial dilutions for a 4-point dose response of each compound. Using a multichannel pipette, 2 μL of the contents of the source plate were stamped into an intermediate plate with 500 μL of RPMI 1640 Media, GlutaMAX Supplement (Life Technologies. 61870127) in each well of a Nunc 96 DeepWell™ plate, non-treated 96 DeepWell plate, 2 mL/well, sterile, natural. 60/cs (Sigma Z717274) and mixed thoroughly. 50 uL from row A of this intermediate plate were added to rows A-H of one plate of previously seeded Kuramochi cells, and each subsequent row of the intermediate plate was added to a full plate of cells.
# On day 4, the plates were developed using the BrdU ELISA Cell Proliferation Assay according to manufacturer's instructions (Roche, 11647229001). Briefly, BrdU was diluted 1:100 in Gibco®. Opti-MEM® and 20 μL/well was added, shaken for 10 minutes at 350 rpm, and then returned to the incubator for 1 hour. Following incubation, the medium was discarded, and the cells were fixed by adding 200 μL of Fix/Denature solution. The anti-BrdU peroxidase antibody was diluted 1:1000 in OptiMEM, added at 100 μL/well, and incubated while shaking (350 rpm) for one hour. Three washes with PBS were performed to remove any unbound antibody, followed by the addition of 100 μL of substrate solution to each well. […] was then added to halt the reaction, and plates were read out using an Envision spectrophotometer (Perkin Elmer) set to read 450 nm absorbance. Background absorbance values from empty wells were subtracted from all samples and then normalized to DMSO treated wells.
# [1] = system: Kuramochi cells labeled with mApple-H2B; test: IncuCyte cell proliferation assay; type: cell-based; conditions: Kuramochi RB-WT, cell count 0 to 72 hours; method calls it GI50
# Description: IncuCyte® assay was used to measure the effect of disclosed compounds on cell proliferation. Fluorescent microscopy images of cells were taken immediately after compound treatment and 72 hours later. Image analysis software was used to obtain cell counts as a function of compound concentration. Kuramochi cells labeled with mApple-H2B were seeded on 384-well assay-ready plates. Plates were placed in an IncuCyte® (Sartorius) and scanned at 0 and 72 hours. IncuCyte® software was used to count the number of fluorescent nuclei in each well. The fold change in cell count from 0 to 72 hours in wells treated with increasing compounds concentrations (10 pts, 1/2 log dilution, 20 μM top concentration) was normalized to DMSO control wells. The normalized cell counts were fit with dose response curves and a GI50 was calculated.
# CDK2/Cyclin E1 = CDK2/Cyclin E1 (Homo sapiens (Human), UniProt P24941); test: Caliper LabChip EZ Reader mobility shift assay; type: biochemical; conditions: 2.5 nM CDK2/Cyclin E1 (14-475), 100 μM ATP, 1.5 μM fluorescent peptide; read-out: Caliper Assay (CDK2/CCNE1): IC50
# Description: Inhibition of CDK2/Cyclin E1 activity in the presence of compounds of the present disclosure was evaluated using a Caliper LabChip® EZ Reader mobility shift assay. In the assay, activated CDK2/Cyclin E1 catalyzes the phosphorylation of a fluorescently tagged peptide 5-FAM-QSPKKG-CONH2 (PerkinElmer, FL Peptide 18) which induces a difference in capillary electrophoresis mobility. The peptide substrate and product were measured, and the conversion ratio was used to determine the inhibition (as % activity and IC50 values) of CDK2/Cyclin E1. Reactions contained 50 mM HEPES pH 7.5, 10 mM MgCl2, 1 mM EDTA, 2 mM DTT, 0.01% Brij35, 0.5 mg/mL BSA, 0.1% DMSO, 2.5 nM CDK2/Cyclin E1 (14-475), 100 μM ATP, and 1.5 μM fluorescent peptide substrate.
# Dose titrations of inhibitors in 100% DMSO were combined with 3.25 nM CDK2/Cyclin E1 (14-475) and 130 μM of ATP in reaction buffer. The mixtures were incubated for 30 minutes before the addition of fluorescent peptide substrate to initiate the kinase reaction. The final conditions were 2.5 nM CDK2/Cyclin E1 (14-475), 100 μM ATP, and 1.5 μM fluorescent peptide. The reactions were stopped after 100 minutes with the addition of EDTA (6 mM final EDTA concentration). The stopped reactions were analyzed on a Caliper LabChip® EZ Reader II. The conversion ratios were normalized to yield % activity, plotted against compound concentration, and fit to a four-parameter equation to determine the IC50 for each compound.
Structure (SMILES),pIC50 (Kuramochi cells),pIC50 [1],pIC50 (CDK2/Cyclin E1)
"C[C@@H](OCC1CCCCC1)[C@H](NC(=O)[C@@H]1CN(c2cccc3[nH]ccc23)CC12CN(C(=O)[C@H]1CC1(C)C)C2)C(=O)N1CCCCC1 [Compound I-14, (S)-N-((2S,3R)-3-(cyclohexylmethoxy)-1-oxo-1-(piperidin-1-yl)butan-2-yl)-2-((S)-2,2-dimethylcyclopropanecarbonyl)-6-(1H-indol-4-yl)-2,6-diazaspiro[3.4]octane-8-carboxamide]",< 5.00,5.30 to 6.30,< 5.00
"C[C@@H](OCC1CCC(F)(F)CC1)[C@H](NC(=O)[C@@H]1CN(C(=O)c2cncs2)CC12CN(c1ncco1)C2)C(C)(C)O [Compound I-4, (S)-N-((3S,4R)-4-((4,4-difluorocyclohexyl)methoxy)-2-hydroxy-2-methylpentan-3-yl)-2-(oxazol-2-yl)-6-(thiazole-5-carbonyl)-2,6-diazaspiro[3.4]octane-8-carboxamide]",< 5.00,< 4.70,5.00 to 6.00
"C[C@@H](OCC1CCCCC1)[C@H](NC(=O)[C@@H]1CN(c2cccc3cn[nH]c23)CC12CN(C(=O)[C@H]1CC1(C)C)C2)C(=O)N1CCCCC1 [Compound I-11, (S)-N-((2S,3R)-3-(cyclohexylmethoxy)-1-oxo-1-(piperidin-1-yl)butan-2-yl)-2-((S)-2,2-dimethylcyclopropanecarbonyl)-6-(1H-indazol-7-yl)-2,6-diazaspiro[3.4]octane-8-carboxamide]",5.30 to 6.30,5.30 to 6.30,
"C[C@@H](OCC1CCCCC1)[C@H](NC(=O)[C@@H]1CN(c2nccc3scnc23)CC12CN(C(=O)[C@H]1CC1(C)C)C2)C(=O)N1CCCCC1 [Compound I-10, (S)-N-((2S,3R)-3-(cyclohexylmethoxy)-1-oxo-1-(piperidin-1-yl)butan-2-yl)-2-((S)-2,2-dimethylcyclopropanecarbonyl)-6-(thiazolo[4,5-c]pyridin-4-yl)-2,6-diazaspiro[3.4]octane-8-carboxamide]",< 5.00,4.70 to 5.30,< 5.00
"CNC(=O)[C@@H](NC(=O)[C@@H]1CN(C(=O)c2cnn(Cc3ccccc3)c2)CC12CN(c1ncco1)C2)[C@@H](C)OCC1CCCCC1 [Compound I-2, (S)-6-(1-benzyl-1H-pyrazole-4-carbonyl)-N-((2S,3R)-3-(cyclohexylmethoxy)-1-(methylamino)-1-oxobutan-2-yl)-2-(oxazol-2-yl)-2,6-diazaspiro[3.4]octane-8-carboxamide]",< 5.00,< 4.70,6.00 to 7.00
"C[C@@H](OCC1CCCCC1)[C@H](NC(=O)[C@@H]1CN(c2nccc3cn[nH]c23)CC12CN(C(=O)[C@H]1CC1(C)C)C2)C(=O)N1CCCCC1 [Compound I-12, (S)-N-((2S,3R)-3-(cyclohexylmethoxy)-1-oxo-1-(piperidin-1-yl)butan-2-yl)-2-((S)-2,2-dimethylcyclopropane-1-carbonyl)-6-(1H-pyrazolo[3,4-c]pyridin-7-yl)-2,6-diazaspiro[3.4]octane-8-carboxamide 2,2,2-trifluoroacetate]",< 5.00,,< 5.00
"C[C@@H](OCC12CCC(CC1)OC2)[C@H](NC(=O)[C@@H]1CN(c2cccc3ncsc23)CC12CN(C(=O)[C@H]1CC1(C)C)C2)C(=O)N(C)C [Compound I-22, (S)-N-((2S,3R)-3-(2-oxabicyclo[2.2.2]octan-4-ylmethoxy)-1-(dimethylamino)-1-oxobutan-2-yl)-6-(benzo[d]thiazol-7-yl)-2-((S)-2,2-dimethylcyclopropanecarbonyl)-2,6-diazaspiro[3.4]octane-8-carboxamide]",,< 4.70,5.00 to 6.00
"CNC(=O)C(NC(=O)[C@@H]1CN(C(=O)c2cncs2)CC12CN(c1nc(C(F)(F)F)co1)C2)[C@@H](C)OCC12CCC(CC1)OC2 (stereo partly drawn) [Compound I-32, (S)-N-((2S,3R)-3-((2-oxabicyclo[2.2.2]octan-4-yl)methoxy)-1-(methylamino)-1-oxobutan-2-yl)-6-(thiazole-5-carbonyl)-2-(4-(trifluoromethyl)oxazol-2-yl)-2,6-diazaspiro[3.4]octane-8-carboxamide]",,< 4.70,< 5.00
